In US11779600B2, “Methods of treating or preventing alzheimer's disease and associated conditions” (CEDARS-SINAI MEDICAL CENTER, priority 2016, dated 2023):

Test system: 6E10+-Aβ plaque
Assay: 6E10+-Aβ plaque burden in ADtg mouse brain sections
Type: in vivo
Details: same brain sections (FIG. 11C)
Experimental: ADtg mice (10 months old) received subcutaneous injections of GA [also known as Cop-1 and Copaxone®; 100 μg in phosphate-buffered saline (PBS)] or PBS alone (control group) twice a week for 1 week and then once a week for 8 weeks. For evaluation of innate immune infiltration to the brain by flow cytometry, 10-month-old ADtg mice received subcutaneous injections of GA ([…] in PBS) or PBS alone twice a week for 1 week and then once a week for 3 weeks. At the end of the study, all mice were anaesthetized and then perfused with ice-cold PBS with 0.5 mM EDTA, after which their organs were collected and analyzed or fixed in 2.5% paraformaldehyde (Sigma-Aldrich), and cryoprotected with 30% sucrose for further histological analysis. CD115^+ monocytes from mice donors were isolated as previously reported (Koronyo et al., Brain: a journal of neurology 2015,138:2399-2422). […] For microscopic analysis, we used a Carl Zeiss Axio Imager Z1 fluorescence microscope equipped with ApoTome (Carl Zeiss MicroImaging, Inc.). […] The number and area (μm^2) of OPN+ cells, Iba1^+CD45^hi cells, GFAP^+ cells, Thio-S^+ amyloid-βplaques and 4G8^+ amyloid-βplaques were determined by examining four to six coronal sections per mouse at 150-μm intervals over an area covering both the hippocampal and cortical (including entorhinal and cingulate cortex) regions. […]

glatiramer acetate [GA]
6E10+-Aβ plaque burden compared with PBS controls: substantial reduction
